From US10035806B2, “Derivatized corroles and metallocorroles and their use as imaging and therapeutic agents” (CALIFORNIA INSTITUTE OF TECHNOLOGY, priority 2015, dated 2018)
Where “and” joins values, the source holds several entries; their conditions need not be identical. Equal entries are not always repeated.

Key:
[1] = tested on: human cancer cells; details: previous work, cited from earlier work
[2] = tested on: murine model animals; details: previous work; cited from earlier work
[3] = tested on: DU-145, SK-MEL-28, MDA-MB-231, OVCAR-3; test: Uptake of gallium corroles (ImageXpress confocal), cell lines taken together; format: cell-based, human; details: 30 μM
Protocol: The intracellular uptake of gallium corroles was quantified using the ImageXpressultra laser point-scanning confocal microscope (Molecular Devices). The fluorescence image acquisition settings were as previously reported (Lim P, et al. (2012), Chem Res Toxicol 25(2):400-409.). Cells (DU-145, SK-MEL-28, MDA-MB-231, and OVCAR-3) were seeded in 96-well dishes (8×10^3 cells per well in 0.1 mL) and allowed to attach overnight. Complex 1, 2, 3, or 4 was added directly to cell media at 30 μM final concentration or media only control, and incubated for 0.25, 1, 3, or 24 h at 37° C. in the dark under a 5% CO2 atmosphere. Cells were fixed and labeled in situ with WGA-Alexa Fluor 488 conjugate and DAPI to allow for the identification of cell boundary and nucleus, respectively. The quantification of blue (DAPI) fluorescence signals in each sample yielded the total number of cells in that population. Corresponding determination of red (corrole) fluorescence within each cell, corrected for background fluorescence from untreated cells, provided the number of cells containing corroles. For each corrole concentration at various time points, fluorescence data were obtained for 1,000-22,000 individual cells. Data acquisitions and analyses were performed as described (Lim P, et al. (2012), Chem Res Toxicol 25(2):400-409). The percentage of corrole-positive cells and the median fluorescence intensity (median RFU) for each treatment were plotted in a three-axis graph using Microsoft Office Excel 2007 (Microsoft Corporation).
To quantify the kinetics of intracellular uptake and accumulation of each derivative, ImageXpressultra, a laser point-scanning confocal microscope, was used for analyses. […] Cells were incubated at 37° C. in the dark for 0.25, 1, 3, or 24 h. […] Within 15 min, Complex 4 fluorescence was observable in ˜80% of ovarian cancer cells, 97% of breast cancer cells, and >99% of prostate cancer and melanoma cells, whereas up to 3 and 24 h were required to label >80% of cells from all four cancer lines with Complexes 3 and 2, respectively. […]

[4] = tested on: MDA-MB-231; test: MTS assay (cytotoxicity); format: cell-based, human; details: MDA-MB-231 (breast), 72 h exposure in the dark, mean of three experiments
Excerpt: (§1) Reagents were obtained from the indicated suppliers: HBSS without phenol red and trypsin-EDTA (0.25%), Invitrogen/Gibco; PBS, Mediatech; 4′,6-diamidino-2-phenylindole dihydrochloride (DAPI) and DMSO, Sigma-Aldrich; paraformaldehyde, Electron Microscopy Sciences; WGA, Alexa Fluor 488 conjugate, Invitrogen/Molecular Probes; and ProLong Gold Antifade Mountant with DAPI, Life Technologies. Human Cancer Cell Lines. Four cell lines from the NCI60 cell panel (Shoemaker RH (2006) The NCI60 human tumour cell line anticancer drug screen. Nat Rev Cancer 6(10):813-823) representing four distinct tumor types were used in this study: DU-145, prostate; MDA-MB-231, breast; SK-MEL-28, melanoma; and OVCAR-3, ovarian. Cells were grown in RPMI 1640 cell culture medium (Mediatech) containing 2 mM L-glutamine, supplemented with 10% FBS (Omega Scientific), and maintained at 37° C. under 5% CO2 in a humidified incubator.
(§2) At the time of drug treatment, stock solutions of 1-4 were diluted to 10-fold the desired final test concentrations with RPMI medium 1640. Aliquots of […] of these diluted solutions were added to the appropriate microtiter wells containing 90 μL of medium, resulting in the required final drug concentrations (eight concentrations per compound, ranging from 0.3 to 600 μM). The final concentration of DMSO in test culture was <1%. […] Following 72 h of exposure at 37° C., cell viability was determined using the MTS assay (CellTiter 96 Aqueous One Cell Proliferation Assay; Promega) according to the manufacturer's instructions. Absorbances were measured using a microplate reader (Synergy 4; Biotek Instruments) at 490 nm. Experiments were performed in triplicate and each dose-response curve represents the mean of three or more independent experiments. Spectrophotometric data were analyzed by sigmoid dose-response, nonlinear regression analysis; the IC50, Emax values, and associated SE were calculated using GraphPad Prism 6 (GraphPad Software).
(§3) The effects of bis-sulfonate, carboxylate, and aminocaproate ring substituents on gallium corrole cytotoxicities were examined using four human cancer cell lines, representing tumors of different origin selected based on previously described sensitivities.

[5] = tested on: SK-MEL-28; test: MTS assay (cytotoxicity); format: cell-based, human; details: SK-MEL-28 (melanoma), 72 h exposure in the dark, mean of three experiments
Excerpt: as §1, §2, §3

[6] = tested on: DU-145; test: MTS assay (cytotoxicity); format: cell-based, human; details: for IC50: DU-145 (prostate), 72 h exposure in the dark, MTS assay, mean of three experiments
Excerpt: as §1, §2, §3

[7] = tested on: OVCAR-3; test: MTS assay (cytotoxicity); format: cell-based, human; details: OVCAR-3 (ovarian), 72 h exposure in the dark, mean of three experiments
Excerpt: as §1, §2, §3

[8] = tested on: MDA-MB-231 cells; details: literature values, read-out: IC50 reported for cisplatin; cited from earlier work

Compound	effect of pyridinium substitution (in place of bis-sulfonic acids) on uptake, activity, toxicity [1]	IC50 [4]	IC50 [5]	IC50 [6]	IC50 [7]	further results
COc1ccc(C2=c3ccc4[n]3[Mn-]35[n]6c(ccc62)C(c2cc[n+](C)cc2)=C2C=CC(=[N+]23)c2ccc([n]25)C=4c2cc[n+](C)cc2)cc1 (stereo not shown) [Complex 5]	improve uptake and activity	–	–	–	–	–
O=S(=O)(O)C1=CC2=C(c3c(F)c(F)c(F)c(F)c3F)c3ccc4[n]3[Ga-]35[n]6c(cc(S(=O)(=O)O)c6C(c6c(F)c(F)c(F)c(F)c6F)=c6ccc([n]63)=C4c3c(F)c(F)c(F)c(F)c3F)C1=[N+]25 (stereo not shown) [Complex 2]	–	129 µM	131 µM	159 µM	274 µM	antitumor activity in vitro ([1]; human cancer cells): potent antitumor activity; mechanism of cytotoxicity: cell cycle effect ([1]; numerous cancer cell lines in vitro): induce cell cycle arrest at late M phase; antitumor activity in vivo [2]: potent antitumor activity; time required to label >80% of cells from all four cancer lines ([3]; 37° C., dark): ≤ 24 h; IC50 ([6]; listed as 2): 159 µM
N.N.[Cl][Pt][Cl] [cisplatin]	–	–	–	–	–	IC50 [8]: 46.4 µM and 39 µM
C[n+]1ccccc1C1=C2C=CC3=[N+]2[Mn-]24[n]5c1ccc5C(c1cccc[n+]1C)=c1ccc([n]12)=C(c1cccc[n+]1C)c1ccc3[n]14 (stereo not shown) [Complex 6]	completely ablated toxicity	–	–	–	–	–
Fc1c(F)c(F)c(C2=C3C=CC4=[N+]3[Ga-]35[n]6c2ccc6C(c2c(F)c(F)c(F)c(F)c2F)=c2ccc([n]23)=C(c2c(F)c(F)c(F)c(F)c2F)c2ccc4[n]25)c(F)c1F (stereo not shown) [Complex 1, gallium(III) tris(pentafluorophenyl)corrole]	–	101 µM	61.3 µM	135 µM	58.1 µM	time required for significant uptake (≥80% cells) ([3]; melanoma, ovarian, and breast cancer cell lines): 24 h
O=C(O)C1=CC2=[N+]3C1=C(c1c(F)c(F)c(F)c(F)c1F)c1ccc4[n]1[Ga-]31[n]3c(ccc32)C(c2c(F)c(F)c(F)c(F)c2F)=c2ccc([n]21)=C4c1c(F)c(F)c(F)c(F)c1F (stereo not shown) [Complex 4]	–	15.3 µM	4.8 µM	12.9 µM	11.1 µM	IC50 lower than bis-sulfonated Complex 2 ([6]; DU-145, 72 h, MTS): −12 fold
